Reference: patent US4603209A, “Fluorescent indicator dyes for calcium ions” (priority 1984, dated 1986)
Like-named read-outs stand apart in the source and are kept apart here. Values belong to the molecule of their own block, whether it stands above or below them.

Columns and labels:
[1] = cited from earlier work
[2] = Ca2+ titration of dye fluorescence in Ca-EGTA buffers; format: binding; conditions: for Kd: read-out: Apparent Kd for Ca^2+
Experimental: The excitation bandwidth was 1.9 nm, the emission was collected at 510 nm with 4.6 nm bandwidth, and the spectra were automatically corrected for excitation lamp and monochromator characteristics using a rhodamine B quantum counter. The titration was done starting with 5 ml of 100 mM KCl, 10 mM KMOPS, 10 mM K2 H2 EGTA, 1 microM fura-2, adjusting the pH to 7.20, recording the spectrum, then discarding 0.5 ml of this solution and replacing with 0.5 ml of 100 mM KCl, 10 mM KMOPS, 10 mM K2 CaEGTA, 1 microM fura-2, readjusting the pH to 7.20, and recording the spectrum which was then in 9 mM K2 H2 EGTA and 1 mM K2 CaEGTA. Subsequent iterations to reach n mM CaEGTA, (10-n) mM EGTA, n=2-10, were done by discarding 5.0/(11-n) ml and replacing with equal volumes of the 10 mM K2 CaEGTA -1 microM fura-2 stock. After n=10 had been reached to give a free Ca^2+ between 10^-4 and 10^-5 M, addition of 1 mM CaCl2 had no further effect on the spectrum. Equality of Ca and EGTA contents in the K2 CaEGTA solution was insured by titration of K2 H2 EGTA with CaCl2 to the potentiometric endpoint measured with a Ca^2+ -selective electrode. EGTA was Fluka Chemical "puriss" grade.
The dye, 6 microM, was titrated in 115 mM KCl, 20 mM NaCl, 10 mM MOPS, 1.115 mM MgCl2, 1.115 mM K2 H2 EGTA, KOH to pH 7.050±0.004, 37° C., to which small aliquots of K2 CaEGTA were added from a micrometer syringe to raise free Ca^2+ to the values labeling each curve, in units of nM unless otherwise specified. Excitation was at 355 nm, and both excitation and emission were set to 5 nm bandwidth. These spectra are not corrected for the emission sensitivity characteristics of the Perkin Elmer MPF-44; in particular the notch at 465 nm is an instrumental artifact. Corrected emission spectra show the low-Ca 485 nm peak to be of very similar amplitude to the high-Ca 404 nm peak when excitation is at 355-356 nm.
Free [Ca^2+ ] levels were controlled by Ca-EGTA buffers assuming apparent dissociation constants for Ca-EGTA of 380 nM at pH 7.00 in 0.1M KCl, 20° C.; 151 nM at pH 7.20 in 0.1M KCl, 20° C.; 214 nM at pH 7.05 in 130 mM KCl, 20 mM NaCl at 37° C.; and 490 nM at pH 7.02 in 225 mM KCl, 25 mM NaCl at 18° C. The first three apparent dissociation constants were calculated from the tables of Martell & Smith (see reference 11) as discussed in referencess 1 and 12. The last value was freshly determined in this study because no appropriate absolute constants were available at the higher ionic strength, and existing estimates in the biological literature (see references 13-17) vary by an unacceptably large range, >0.5 log unit. For this determination we chose the classic and reliable method of pH titration in the presence and absence of excess metal ion (see references 18). Details are included in the METHODS OF SYNTHESIS section, supra.
Dissociation constants for the new indicators disclosed herein, as exemplified by chelators stil-1, stil-2, indo-1, fura-1, fura-2 and fura-3 (see Table I, infra), are in the range 100-300 nM at ionic strengths near 0.1 to 0.15. Such values are close to the dissociation constant (110 nM) of the parent compound BAPTA (see reference 6), showing that the substituents that make up the rest of the chromophores are only slightly electron-withdrawing. […] A considerable decrease in Ca^2+ binding strength is observed, to an apparent dissociation constant of 760 nM. Such a strong dependence on ionic strength is not surprising for the reaction of a tetravalent anion with a divalent cation.
where Kd is the effective dissociation constant. The fluorescence ratio R is the ratio [formula] Solving for [Ca^2+ ] yields the calibration equation: [formula] Note that FA1 /FA2 is simply the limiting value that R can have at zero [Ca^2+ ] and so may be considered Rmin, while FB1 /FB2 is the analogous limiting Rmax that the ratio has at saturating [Ca^2+ ]. […]

[3] = reference 26; cited from earlier work
[4] = reference 26; cited from earlier work; remark: listed apart in the source
[5] = cited from earlier work; remark: listed apart in the source
[6] = Zn2+ titration of dye fluorescence in Zn-EGTA buffer, Hill plots; format: binding
Experimental: Heavy metal binding constants were measured as follows. Affinities of stil-1 and fura-2 for Zn^2+ were measured by titrating 1-2 microM dye in 120 mM KCl, 5 mM K2 H2 EGTA, 10 mM MOPS, 5 mM Tris, with 1M ZnCl2 dispensed from a micrometer syringe. […] (see reference 11).
Binding of fura-2 to some of the physiologically more important heavy divalent metals was also briefly examined. Both stil-1 and fura-2 bind zinc with dissociation constants around 1.6-2 nM (pKZn 8.6-8.8). […] Curiously Zn^2+ shifts the fura-2 spectrum the same way that Ca^2+ does, whereas Zn^2+ quenches quin2 and therefore acts oppositely to Ca^2+. Fura-2 is also better than quin2 in rejecting Mn^2+, the Mn^2+ :Ca^2+ preferences being 42-fold and 510-fold respectively (see reference 26). […] A more precise estimate was prevented by experimental scatter, which may reflect more complicated stoichiometry than 1:1 or imperfectly anaerobic conditions. Both Mn^2+ and Fe^2+ quench fura-2 as expected for metals with many unpaired electrons. For comparison, EGTA prefers Zn^2+, Mn^2+, and Fe^2+ to Ca^2+, by factors of ca. 50, ca. 20, and ca. 8-fold respectively (see reference 11).

[7] = 115 mM KCl, 20 mM NaCl, 10 mM KMOPS, pH 7.05, 1 mM free Mg^2+, 37° C.

Compound: O=C(O)CN(CC(=O)O)c1ccccc1OCCOc1ccccc1N(CC(=O)O)CC(=O)O [BAPTA, 1,2-bis(2-aminophenoxy)ethane N,N,N',N'-tetraacetic acid]
Kd ([1]; parent compound, reference 6, read-out: dissociation constant (Ca^2+)): 0.11 µM
Kd ([1]; reference 6, read-out: Kd (Ca^2+)): 0.1 µM

Compound: Cc1ccc(N(CC(=O)O)CC(=O)O)c(OCCOc2cc3cc(-c4ccc(C(=O)O)cc4)oc3cc2N(CC(=O)O)CC(=O)O)c1 [fura-1, 1-(2-(4-carboxyphenyl)-6-amino-benzofuran-5-oxy)-2-(2'-amino-5'-methylphenoxy)ethane-N,N,N',N'-tetraacetic acid]
Kd [2, 7]: 0.107 µM

Compound: Cc1ccc(N(CC(=O)O)CC(=O)O)c(OCCOc2cc3cc(-c4ccc(C#N)cc4)oc3cc2N(CC(=O)O)CC(=O)O)c1 [fura-3, 1-(2-(4-cyanophenyl)-6-aminobenzofuran-5-oxy)-2-(2'-amino-5'-methylphenoxy)ethane-N,N,N',N'-tetraacetic acid]
Kd [2, 7]: 0.14 µM

Compound: COc1cc(N(CC(=O)O)CC(=O)O)c2nc(COc3cc(C)ccc3N(CC(=O)O)CC(=O)O)ccc2c1 [quin-2]
Zn^2+:Ca^2+ preference [3]: 3.5 orders of magnitude
Kd ([1]; 100 mM KCl, 20° C., pH 7.1-7.2, data taken from reference 4, read-out: Apparent Kd for Ca^2+): 0.08 µM
Mn^2+:Ca^2+ preference [4]: 510 fold
Kd ([5]; 37°, references 6 and 7, read-out: Mg^2+ dissociation constant): ~1000 µM
Kd ([5]; background statement, read-out: dissociation constant for Mg^2+): 1000 to 2000 µM
Kd ([5]; ca. 22°, references 6 and 7, read-out: Mg^2+ dissociation constant): ~2000 µM

The next lines start with results.

Kd from ratio calibration equation 5 ([2]; FIG. 4 data, emission 400 nm / 490 nm, 115 mM KCl, 20 mM NaCl, pH 7.050, 37° C.): 0.25 µM
Compound: Cc1ccc(N(CC(=O)O)CC(=O)O)c(OCCOc2cc(-c3cc4ccc(C(=O)O)cc4[nH]3)ccc2N(CC(=O)O)CC(=O)O)c1 [indo-1, 1-(2-amino-5-[6-carboxyindolyl-2]-phenoxy)-2-(2'-amino-5'-methylphenoxy)ethane-N,N,N',N'-tetraacetic acid]

pKZn ([6]; 120 mM KCl, pH 7.12, room temperature): 8.6-8.8
Kd ([6]; 120 mM KCl, pH 7.12, room temperature, read-out: dissociation constant for zinc): 0.0016 to 0.002 µM
Kd ([2]; 100 mM KCl, 20° C., pH 7.1-7.2): 0.132 µM
Kd [2, 7]: 0.2 µM
Compound: Cc1ccc(N(CC(=O)O)CC(=O)O)c(OCCOc2cc(/C=C/c3ccc(C(=O)O)cc3)ccc2N(CC(=O)O)CC(=O)O)c1 [stil-1]
Zn^2+:Ca^2+ preference [6]: two orders of magnitude

Kd ([2]; 100 mM KCl, 37° C., pH 7.08, cis-trans mixture as saponified): 0.224 µM
Compound: Cc1ccc(N(CC(=O)O)CC(=O)O)c(OCCOc2cc(/C=C/c3ccc(S(=O)(=O)N(C)C)cc3)ccc2N(CC(=O)O)CC(=O)O)c1 [stil-2]
